Test results: ChEMBL document CHEMBL1201862, “PubChem BioAssay data set” (2004)
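96-well plates; 48 h exposure; 5 concentrations. Endpoints by linear interpolation between flanking doses. Not reached: highest tested concentration assigned. GI50 is the concentration that inhibits growth by half.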 Active and inactive are the calls of the source. No stated cut-off is given here; in the data, active = GI50 up to about 1.1 µM and inactive = higher.

Assays:
Assay in all cases: DTP human tumour cell line panel, 48 h
[1] = system: HOP-62
[2] = system: HOP-92
[3] = system: SW-620
[4] = system: A498
[5] = system: A549
[6] = system: HCT-116
[7] = system: OVCAR-4
[8] = system: Hs-578T
[9] = system: 786-0
[10] = system: KM12
[11] = system: CCRF-CEM
[12] = system: UO-31
[13] = system: Malme-3M
[14] = system: MCF7
[15] = system: RXF 393
[16] = system: TK-10
[17] = system: UACC-62
[18] = system: NCI-H226
[19] = system: UACC-257
[20] = system: SNB-19
[21] = system: U-251
[22] = system: DU-145
[23] = system: K562
[24] = system: SN12C
[25] = system: HT-29
[26] = system: MDA-N
[27] = system: SK-MEL-28
[28] = system: SF-539
[29] = system: NCI/ADR-RES
[30] = system: COLO 205
[31] = system: NCI-H23
[32] = system: NCI-H522
[33] = system: SK-MEL-5
[34] = system: EKVX
[35] = system: M14
[36] = system: LOX IMVI
[37] = system: SK-OV-3
[38] = system: BT-549
[39] = system: SF-295
[40] = system: CAKI-1
[41] = system: IGROV-1
[42] = system: ACHN
[43] = system: HCT-15
[44] = system: MOLT-4
[45] = system: PC-3
[46] = system: SF-268
[47] = system: OVCAR-3
[48] = system: OVCAR-5
[49] = system: NCI-H460
[50] = system: SNB-75
[51] = system: SR
[52] = system: T47D
[53] = system: MDA-MB-231
[54] = system: MDA-MB-435
[55] = system: HCC 2998
[56] = system: OVCAR-8
[57] = system: RPMI-8226
[58] = system: HL-60

Nc1ncnc2oc(C3OC(COC(=O)c4ccccc4)C(OC(=O)c4ccccc4)C3OC(=O)c3ccccc3)nc12 (stereo not drawn)
GI50 [1]: > 100 µM (inactive) | GI50 [2]: > 100 µM (inactive) | GI50 [3]: > 100 µM (inactive) | GI50 [4]: 14.8 µM (inactive) | GI50 [5]: > 100 µM (inactive) | GI50 [6]: > 100 µM (inactive) | GI50 [7]: > 100 µM (inactive) | GI50 [8]: 49.2 µM (inactive) | GI50 [9]: > 100 µM (inactive) | GI50 [10]: > 100 µM (inactive) | GI50 [11]: > 100 µM (inactive) | GI50 [12]: > 100 µM (inactive) | GI50 [13]: 96.2 µM (inactive) | GI50 [14]: > 100 µM (inactive) | GI50 [15]: > 100 µM (inactive) | GI50 [16]: > 100 µM (inactive) | GI50 [17]: 74.8 µM (inactive) | GI50 [18]: > 100 µM (inactive) | GI50 [19]: > 100 µM (inactive) | GI50 [20]: > 100 µM (inactive) | GI50 [21]: > 100 µM (inactive) | GI50 [22]: > 100 µM (inactive) | GI50 [23]: > 100 µM (inactive) | GI50 [24]: > 100 µM (inactive) | GI50 [25]: > 100 µM (inactive) | GI50 [26]: > 100 µM (inactive) | GI50 [27]: > 100 µM (inactive) | GI50 [28]: > 100 µM (inactive) | GI50 [29]: > 100 µM (inactive) | GI50 [30]: > 100 µM (inactive) | GI50 [31]: > 100 µM (inactive) | GI50 [32]: > 100 µM (inactive) | GI50 [33]: > 100 µM (inactive) | GI50 [34]: > 100 µM (inactive) | GI50 [35]: > 100 µM (inactive) | GI50 [36]: > 100 µM (inactive) | GI50 [37]: > 100 µM (inactive) | GI50 [38]: > 100 µM (inactive) | GI50 [39]: > 100 µM (inactive) | GI50 [40]: > 100 µM (inactive) | GI50 [41]: > 100 µM (inactive) | GI50 [42]: > 100 µM (inactive) | GI50 [43]: > 100 µM | GI50 [44]: > 100 µM (inactive) | GI50 [45]: 98.6 µM (inactive) | GI50 [46]: > 100 µM (inactive) | GI50 [47]: > 100 µM (inactive) | GI50 [48]: > 100 µM (inactive) | GI50 [49]: > 100 µM (inactive) | GI50 [50]: 29.2 µM (inactive) | GI50 [51]: > 100 µM (inactive) | GI50 [52]: 21.1 µM (inactive) | GI50 [53]: > 100 µM (inactive) | GI50 [54]: > 100 µM (inactive) | GI50 [55]: > 100 µM (inactive) | GI50 [56]: > 100 µM (inactive) | GI50 [57]: > 100 µM (inactive) | GI50 [58]: > 100 µM (inactive)
